Data reported in US7011826B1, “Control of acidosis” (priority 1999, dated 2006).

Tests used:
[1] = tested on: Clostridium-like vitulinus (LV R1); assay: Virginiamycin sensitivity test (broth growth); type: cell-based; conditions: Basal Medium 10 with glucose (0.5%)
Method: (§1) Two isolates of S. bovis from cattle and sheep (orange pigmented and white), five Clostridium-like vitulinus and three isolates of S. ruminantium were incubated in a branch of basal medium 10 with glucose (0.5%) and virginiamycin (VM) at a concentrations of 0, 2, 4, 6 and 8 μg/ml. The virginiamycin solution (100 μg VM/ml) was prepared using Eskalin Wettable Powder (WP), 400 g/kg VM (Pfizer Animal Health, NSW, Australia). The WP was dissolved in distilled water (previously boiled and bubbled with nitrogen until cooled) and filter-sterilised whilst being gassed with nitrogen. This solution was used immediately after preparation. […] The broth-media was inoculated by 0.2 ml of the different fresh viable cultures and 0.1–0.4 ml of VM solution was added to each tube to provide the required dose. A sensitivity test was also performed when VM was added 3 and 6 h after inoculation, using the same concentrations of VM. Tests for sensitivity to VM were conducted using […] of anaerobic incubation at 39° C.

[2] = tested on: Clostridium-like vitulinus (LV R2); assay: Virginiamycin sensitivity test (broth growth); type: cell-based; conditions: Basal Medium 10 with glucose (0.5%)
Method: as §1

[3] = tested on: Clostridium-like vitulinus (LV R3); assay: Virginiamycin sensitivity test (broth growth); type: cell-based; conditions: Basal Medium 10 with glucose (0.5%)
Method: as §1

[4] = tested on: Clostridium-like vitulinus (LV R4); assay: Virginiamycin sensitivity test (broth growth); type: cell-based; conditions: Basal Medium 10 with glucose (0.5%)
Method: as §1

[5] = tested on: Clostridium-like vitulinus (LV R5); assay: Virginiamycin sensitivity test (broth growth); type: cell-based; conditions: Basal Medium 10 with glucose (0.5%)
Method: as §1

[6] = tested on: S. ruminantium (SR R1, SR R2 and SR R3); assay: Virginiamycin sensitivity test (broth growth); type: cell-based; conditions: Basal Medium 10 with glucose (0.5%)
Method: as §1

[7] = tested on: Clostridium-like isolates; assay: Virginiamycin sensitivity test, VM added 3 and 6 h after inoculation; type: cell-based, Clostridium-like vitulinus
Method: as §1

dogs [8] = assay: Virginiamycin dose trial in dogs fed tinned dog food with added raftilose (faecal measurements); type: in vivo; parameters: faecal Dry matter / faecal Total VFA: unit not given here; conditions: for faecal pH: raftilose diet; for faecal Consistency score: 5 = firm, normal faeces and 1 = diarrhoea
Method: The main objective of this trial was to investigate various doses of virginiamycin in terms of its effect on faecal consistency and hind gut fermentation.
Design: There were 4 treatment groups consisting of unmedicated control, and virginiamycin at 3 levels: 0.25, 0.5 and 1 mg/kg body weight. Dogs were acclimatised to a dict based on the tinned ‘No Frills’ dog food for approximately 2 weeks prior to a seven-day treatment period in which fructo-oligosaccharide raftilose was added to the diet at a rate of 3.5 g/kg metabolic body weight. There were five dogs per treatment.
Measurements were made of faecal pH, dry matter, consistency and chemical assays were conducted to measure VFA, D-lactic acid and L-lactic acid.

dogs [9] = assay: Faecal characteristics of dog fed dry dog food with virginiamycin; type: in vivo; conditions: one dog, virginiamycin 0.5 mg/kg body weight for 7 days
Method: Two dogs were fed a commercial dry dog food for 4 weeks before and then during the experimental period. Virginiamycin (Eskalin 20) was added to the diet of one dog for a period of 7 days prior to faecal sampling to provide 0.5 mg/kg body weight. Samples of faeces were taken for the analysis of pH and lactic acid concentrations at the same time as those taken for isolation of lactic acid producing bacteria.

[10] = VM 0.25, 0.5 and 1 mg/kg body weight

## virginiamycin
[1]
  MIC level: 2 µg/mL
[2]
  VM level the isolate resisted up to: 4 µg/mL
[3]
  VM level the isolate resisted up to: 4 µg/mL
[4]
  VM level the isolate resisted up to: 6 µg/mL
[5]
  MIC level: 2 µg/mL
[6]
  highest VM level to which isolates were resistant: 8 µg/mL
[7]; cultures growing 3 h before addition of VM
  MIC compared with VM added immediately after inoculation: higher MIC
[7]; cultures grown 6 h before addition of VM, all Clostridium-like isolates
  highest VM level to which isolates were resistant: 8 µg/mL
Dogs [8]; VM 0.25 mg/kg body weight
  faecal D-lactic acid concentration: 0.2
  faecal Dry matter: 22.0
  faecal L-lactic acid concentration: 2.2
  faecal Total VFA: 80.5
  faecal pH: 5.2
Dogs [8]; VM 0.25 mg/kg
  faecal Consistency score: 3.6
Dogs [8]; VM 0.5 mg/kg body weight
  faecal D-lactic acid concentration: 0.4
  faecal Dry matter: 22.5
  faecal L-lactic acid concentration: 13.8
  faecal Total VFA: 93.7
  faecal pH: 4.9
Dogs [8]; VM 0.5 mg/kg
  faecal Consistency score: 3.7
Dogs [8]; VM 1.0 mg/kg body weight
  faecal D-lactic acid concentration: 0.3
  faecal Dry matter: 24.2
  faecal L-lactic acid concentration: 11.8
  faecal Total VFA: 73.5
  faecal pH: 4.9
Dogs [8]; VM 1.0 mg/kg
  faecal Consistency score: 3.8
Dogs [8]; [10]
  effect on L-lactic: little effect
  effect on the pH, faecal consistency, dry matter content and VFA concentrations: little effect
Dogs [8]; all levels of inclusion
  effect on concentration of d-lactic acid: reduce the concentration of d-lactic acid
Dogs [9]
  D(−)Lactate in faeces: 0.45 mmol/L
  L(+)Lactate in faeces: 0.34 mmol/L
  faecal pH: 5.34
